Entries after “also recorded” stand apart in the source; their conditions may differ. Read-outs that look alike come from different tables or passages of the source. Marks after values point to notes of the source that are not given here.
Assays:
[1] = Pd(II) complexation equilibria by UV spectrophotometry and potentiometry; conditions: for log KML: stability constant of the Pd(II) complex, 25°C in 1.0 M KCl
[2] = Ligand protonation equilibria by potentiometric titration; format: physicochemical; conditions: 1.0 m kcl
[3] = cited from earlier work
[4] = EDTA challenge (transchelation) of 109Pd-labelled complexes, radio-HPLC; conditions: pbs, 1000 eq edta, pH 7
[5] = Acid-mediated dissociation (cold inertness) followed by 1H NMR; format: physicochemical; conditions: Pd(II) complex, 5 M DCl (HCl 5M), 90°C, up to five months, 0.05M
[6] = pbs, 1000 eq edta, 24 h, pH 7
[7] = Table 5, complexation constant in log units, […], 1.0 M (K,H)Cl
[8] = Table 6, overall formation constant in log units, […], 1.0 M (K,H)Cl
[9] = Table 5, stepwise protonation constant in log units, read-out: H2L + H^+ ⇄H3L
[10] = Table 5, stepwise protonation constant in log units, read-out: H3L + H^+ ⇄H4L
[11] = Table 5, stepwise protonation constant in log units, read-out: HL + H^+ ⇄H2L
[12] = Table 5, stepwise protonation constant in log units, read-out: L + H^+ ⇄HL
[13] = Table 6, overall constant in log units, read-out: L + H^+ ⇄HL

Compound | Pd^2+ + L ⇄PdL [1, 7] | Pd^2+ + L ⇄PdL [1, 8] | log KML [1] | pKa [2, 9] | pKa [2, 10] | pKa [2, 11] | pKa [2, 12] | pKa [2, 13] | Dissociation [5] | other results
c1ccc(CN2CCCNCCNCCCNCC2)cc1 [TE1Bn, reference compound] | > 43 | >43 | > 43 | 2.21 | 2.89 | 9.39 | 11.3 | 11.3 | – | –
O=C(O)c1cccc(CN2CCCNCCNCCCNCC2)n1 [TE1PA, 6-((1,4,8,11-tetraazacyclotetradecan-1-yl)methyl)picolinate] | – | – | – | 3.05 | 2.28 | 10.1 | 11.1 | 11.1 | – | PdHL + H^+ ⇄PdH2L ([1]; Table 5, stepwise protonation constant of the Pd(II) complex in log units, […], 1.0 M KCl): 1.8(1); pKa ([2]; Table 5, stepwise protonation constant in log units, read-out: H4L + H^+ ⇄H5L): 1.69
c1ccc(CN2CCCNCCNCCCNCC2)nc1 [TE1Py] | 42.6(1) | 42.6(1) | 42.6 | 2.65 | 2.83 | 10.4 | 11.5 | 11.5 | – | Pd^2+ + L + H^+ ⇄PdHL ([1]; Table 6, overall formation constant in log units, determined by UV spectrophotometry, pH 0-1.5, […], 1.0 M (K,H)Cl): 44.2(1) ^b
C1CNCCNCCCNCCNC1.[Cl-].[Cl-].[Pd+2] [[Pd(cyclam)]^2+, Palladium(II) 1,4,8,11-tetraazacyclotetradecane dichloride, reference compound] | – | – | – | – | – | – | – | – | neither [Pd(cyclam)]^2+ nor [Pd(TE1PA)]^2+ present any significant dissociation; also recorded: HCl 5M, 90°C: Inert | log KML ([3]; Pd(II) cyclam complex, 25°C in 0.1 M NaClO4, Harrington et al. 2005, value estimated): log KML = 56,9; degraded at 24 h [4]: 13%
OCCN1CCCN(CCO)CCN(CCO)CCCN(CCO)CC1 [tetra(2-hydroxyethyl) cyclam] | – | – | – | – | – | – | – | – | – | log KML ([3]; Pd(II) complex, Hay et al. 1987): 18.32
Palladium (II) 6-methylpicolinate-1,4,8,11-tetraazacyclotetradecane tetrachloropalladate [[Pd(TE1PA)]^2+] | – | – | log KML = 38.4 | – | – | – | – | – | neither [Pd(cyclam)]^2+ nor [Pd(TE1PA)]^2+ present any significant dissociation; also recorded: HCl, 5M, 90°C: Inert | demetallation [6]: 9% demetallation

Reference: patent EP4273142A1 (Université de Bretagne Occidentale, priority 2022, dated 2023)
